Data: patent US20250255882A1, “TREATMENT OF CARDIAC CONDITION RELATED COGNITIVE DYSFUNCTION” (The Trustees of Columbia University in the City of New York, priority 2024, published 2025)

Assays:
[1] = tested on: mouse model of HF (myocardial infarction, MI); test: open field test and elevated plus maze (EPM) test; format: in vivo; details: MI mice, treated
Source text: FIGS. 2A-2G illustrate a mouse model of heart failure (myocardial infarction) that is associated with cognitive dysfunction. […] One-way analysis of variance (ANOVA) was used to compare the difference between the six groups in FIGS. 2B, 2C, 2E and 2F. Tukey's test was used for multiple comparisons; two-way ANOVA was used in FIG. 2D. […] All statistical tests were two sided with the data derived from biologically independent samples.
Because of the complexity of the clinical manifestation of HF patients, the mouse model of HF (myocardial infarction, MI) was used with reduced ejection fraction to evaluate the mechanisms of CD. The open field test and elevated plus maze (EPM) test were used to evaluate the behavioral phenotypes, and spontaneous exploratory activity in the mice. In the open field test, mice were placed at the center of a chamber and allowed to explore for 6 min. […] In the EPM test, MI mice spent […] time in the open arms of the EPM (FIG. 2B) compared to SHAM (0.22±0.04 versus 0.14±0.02; P<0.05). […] As a control, the effects of a Rycal®, ARM036, was studied.

[2] = tested on: mouse model of HF (myocardial infarction, MI); test: MWM test (long-term spatial learning and memory) with probe trial; format: in vivo; details: MI mice, treated; for target crossings / time spent in the target quadrant: 60-s probe trial day 5; for target crossings: MI 2.4±0.3, SHAM 4.6±0.3; for time spent in the target quadrant: MI 17±1 s, SHAM 25±2 s; for latency to find and reach the hidden platform: day 4 training trials, MI 30±1 s, SHAM 21±2 s
Method: One-way analysis of variance (ANOVA) was used to compare the difference between the six groups in FIGS. 2B, 2C, 2E and 2F. Tukey's test was used for multiple comparisons; two-way ANOVA was used in FIG. 2D. […] All statistical tests were two sided with the data derived from biologically independent samples.
A MWM test was performed to assess hippocampal-dependent long-term spatial learning and memory.
A probe trial was performed on day 5 of the MWM test.

hippocampal RyR2 = target: T1, hippocampal RyR2 (Mus musculus, UniProt E9Q401); test: single-channel recordings of RyR2 incorporated in planar lipid bilayers; format: in vivo; details: hippocampal RyR2 from treated MI mice; for RyR2 mean closed time / RyR2 mean open time: versus untreated MI
T1 construct: Hippocampal RyR2 was immunoprecipitated and immunoblotted to detect PTMs; from tissue; host or cells: mouse hippocampus (SHAM / MI mice, treated in vivo)
Method: FIG. 3E are graphs of RyR2 Po, To and Tc in the same groups as FIG. 3D. FIG. 3F is a graph of Ca^2+ leak measured in microsomes from mouse hippocampi of the same groups as FIG. 3D. […] Individual values are shown with the mean±s.e.m. […] Data are derived from biologically independent samples. All statistical tests were two sided.
PTMs and functional abnormalities of neuronal RyR2 in HF hippocampal samples from MI mice were then evaluated and compared them to SHAM. Hippocampal RyR2 was immunoprecipitated and immunoblotted to detect PTMs.

MI mice = test: hippocampal FDG metabolism by microPET; format: in vivo, mouse; details: treated MI mice; percentage of the FDG uptake in the SHAM mice (SHAM 100±3, MI 70±3)
Source text: FIG. 4A is a schematic representation of a hippocampal brain slice for LTP experiments and the positioning of the stimulating and recording electrodes.
Thereafter, [^18F]fluorodeoxyglucose (FDG) with positron emission tomography (PET) was used to measure energy consumption in neurons, which reflects neuronal communication signals and the integrative local neuronal activity. Deteriorating brain glucose metabolism measured by FDG-PET has been used as a clinical marker for Alzheimer's disease diagnosis. Thus, hippocampal FDG metabolism was evaluated in the experimental groups (FIGS. 4E and 4F).

SNARE signaling pathway = test: immunoblots of SNAP25, VAMP8, SYT2 and CPLX3 in hippocampi; format: in vivo, mouse; details: hippocampi of treated MI mice
Source text: FIGS. 7A-7E illustrate altered synaptic protein expression in heart failure. […] The color map represents fold change of proteins (log 2 scale). […] FIGS. 7B and 7C are immunoblots showing total expression of SNAP25, VAMP8, SYT2 and CPLX3, normalized to GAPDH in the hippocampi of controls (n=4) and individuals with HF (n=9). Individual values are shown with the mean±s.e.m. (t-test *P<0.05, control versus individuals with HF). […] Individual values are shown with the mean #s.e.m. […] Data are derived from biologically independent samples. All statistical tests were two sided.
Based on the proteome data in the setting of defective Ca^2+ regulation, four proteins were selected for further study. These four proteins were from the most enriched synaptic transmission pathways that are regulated by Ca^2+, located near the synaptic membranes, involved in learning and memory process, and involved in neurotransmission as potential downstream signals of leaky RyR2. These selections included synaptosomal-associated protein 25 (SNAP25), vesicle-associated membrane protein 8 (VAMP8), synaptogamin-2 (SYT2) and complexin3 (CPLX3). We analyzed their protein expression levels by immunoblot in individuals with HF, and in SHAM and MI mice with or without each of the aforementioned treatments. […]

TGF-β pathway = test: immunoblots of TGF-β, phosphorylated SMAD3 and NOX2 binding to RyR2 in hippocampi; format: in vivo, mouse; details: hippocampi of treated MI mice
Source text: FIG. 12A includes immunoblots showing expressing levels of TGF-β, phosphorylated SMAD3, total SMAD3, and NOX2 binding to RyR2 in the hippocampi of controls (n=4) and HF patients (n=9). FIG. 12B includes bar graphs depicting the ratio of TGF-β expression normalized to GAPDH, phosphorylated SMAD3 to total SMAD3 and NOX2 binding to RyR2 (IP RyR2). The same quantity of proteins was loaded on two separate gels and blotted separately for SMAD3 and pSMAD3. Individual values are shown with mean±SEM (t-test * p<0.05, Controls vs. HF patients). […] FIG. 12D includes bar graphs depicting the ratio of TGF-β expression normalized to GAPDH, phosphorylated SMAD3 to total SMAD3 and NOX2 binding to RyR2 (IP RyR2). The same quantity of proteins was loaded on two separate gels and blotted separately for SMAD3 and pSMAD3. Individual values are shown with mean±SEM. […] All statistical tests were two-sided. Data are derived from biologically independent samples.
TGF-β has been implicated in CNS disorders including Alzheimer's disease.

[3] = tested on: Ca2+-dependent enzymes, Tau and amyloid beta pathway; test: Alzheimer's disease-like signaling in hippocampal samples; format: in vivo, mouse; details: hippocampi of treated MI mice
Source text: Abnormal Ca^2+ regulation can contribute to the activation of Ca^2+-dependent enzymes such as AMP-activated protein kinase (AMPK), cyclin-dependent kinase 5 (CDK5) and enhanced calpain activity. Activation of these enzymes in response to elevated cytosolic Ca^2+ levels are upstream signals of both pTau and amyloid deposits in Alzheimer's disease brains and could be a major factor in the CD observed in HF. […] We also observed an increase in p25 expression, the neurotoxic activator of CDK5, which plays an important role in amyloid precursor protein processing in AD.

T1 sequence (E9Q401 whole entry): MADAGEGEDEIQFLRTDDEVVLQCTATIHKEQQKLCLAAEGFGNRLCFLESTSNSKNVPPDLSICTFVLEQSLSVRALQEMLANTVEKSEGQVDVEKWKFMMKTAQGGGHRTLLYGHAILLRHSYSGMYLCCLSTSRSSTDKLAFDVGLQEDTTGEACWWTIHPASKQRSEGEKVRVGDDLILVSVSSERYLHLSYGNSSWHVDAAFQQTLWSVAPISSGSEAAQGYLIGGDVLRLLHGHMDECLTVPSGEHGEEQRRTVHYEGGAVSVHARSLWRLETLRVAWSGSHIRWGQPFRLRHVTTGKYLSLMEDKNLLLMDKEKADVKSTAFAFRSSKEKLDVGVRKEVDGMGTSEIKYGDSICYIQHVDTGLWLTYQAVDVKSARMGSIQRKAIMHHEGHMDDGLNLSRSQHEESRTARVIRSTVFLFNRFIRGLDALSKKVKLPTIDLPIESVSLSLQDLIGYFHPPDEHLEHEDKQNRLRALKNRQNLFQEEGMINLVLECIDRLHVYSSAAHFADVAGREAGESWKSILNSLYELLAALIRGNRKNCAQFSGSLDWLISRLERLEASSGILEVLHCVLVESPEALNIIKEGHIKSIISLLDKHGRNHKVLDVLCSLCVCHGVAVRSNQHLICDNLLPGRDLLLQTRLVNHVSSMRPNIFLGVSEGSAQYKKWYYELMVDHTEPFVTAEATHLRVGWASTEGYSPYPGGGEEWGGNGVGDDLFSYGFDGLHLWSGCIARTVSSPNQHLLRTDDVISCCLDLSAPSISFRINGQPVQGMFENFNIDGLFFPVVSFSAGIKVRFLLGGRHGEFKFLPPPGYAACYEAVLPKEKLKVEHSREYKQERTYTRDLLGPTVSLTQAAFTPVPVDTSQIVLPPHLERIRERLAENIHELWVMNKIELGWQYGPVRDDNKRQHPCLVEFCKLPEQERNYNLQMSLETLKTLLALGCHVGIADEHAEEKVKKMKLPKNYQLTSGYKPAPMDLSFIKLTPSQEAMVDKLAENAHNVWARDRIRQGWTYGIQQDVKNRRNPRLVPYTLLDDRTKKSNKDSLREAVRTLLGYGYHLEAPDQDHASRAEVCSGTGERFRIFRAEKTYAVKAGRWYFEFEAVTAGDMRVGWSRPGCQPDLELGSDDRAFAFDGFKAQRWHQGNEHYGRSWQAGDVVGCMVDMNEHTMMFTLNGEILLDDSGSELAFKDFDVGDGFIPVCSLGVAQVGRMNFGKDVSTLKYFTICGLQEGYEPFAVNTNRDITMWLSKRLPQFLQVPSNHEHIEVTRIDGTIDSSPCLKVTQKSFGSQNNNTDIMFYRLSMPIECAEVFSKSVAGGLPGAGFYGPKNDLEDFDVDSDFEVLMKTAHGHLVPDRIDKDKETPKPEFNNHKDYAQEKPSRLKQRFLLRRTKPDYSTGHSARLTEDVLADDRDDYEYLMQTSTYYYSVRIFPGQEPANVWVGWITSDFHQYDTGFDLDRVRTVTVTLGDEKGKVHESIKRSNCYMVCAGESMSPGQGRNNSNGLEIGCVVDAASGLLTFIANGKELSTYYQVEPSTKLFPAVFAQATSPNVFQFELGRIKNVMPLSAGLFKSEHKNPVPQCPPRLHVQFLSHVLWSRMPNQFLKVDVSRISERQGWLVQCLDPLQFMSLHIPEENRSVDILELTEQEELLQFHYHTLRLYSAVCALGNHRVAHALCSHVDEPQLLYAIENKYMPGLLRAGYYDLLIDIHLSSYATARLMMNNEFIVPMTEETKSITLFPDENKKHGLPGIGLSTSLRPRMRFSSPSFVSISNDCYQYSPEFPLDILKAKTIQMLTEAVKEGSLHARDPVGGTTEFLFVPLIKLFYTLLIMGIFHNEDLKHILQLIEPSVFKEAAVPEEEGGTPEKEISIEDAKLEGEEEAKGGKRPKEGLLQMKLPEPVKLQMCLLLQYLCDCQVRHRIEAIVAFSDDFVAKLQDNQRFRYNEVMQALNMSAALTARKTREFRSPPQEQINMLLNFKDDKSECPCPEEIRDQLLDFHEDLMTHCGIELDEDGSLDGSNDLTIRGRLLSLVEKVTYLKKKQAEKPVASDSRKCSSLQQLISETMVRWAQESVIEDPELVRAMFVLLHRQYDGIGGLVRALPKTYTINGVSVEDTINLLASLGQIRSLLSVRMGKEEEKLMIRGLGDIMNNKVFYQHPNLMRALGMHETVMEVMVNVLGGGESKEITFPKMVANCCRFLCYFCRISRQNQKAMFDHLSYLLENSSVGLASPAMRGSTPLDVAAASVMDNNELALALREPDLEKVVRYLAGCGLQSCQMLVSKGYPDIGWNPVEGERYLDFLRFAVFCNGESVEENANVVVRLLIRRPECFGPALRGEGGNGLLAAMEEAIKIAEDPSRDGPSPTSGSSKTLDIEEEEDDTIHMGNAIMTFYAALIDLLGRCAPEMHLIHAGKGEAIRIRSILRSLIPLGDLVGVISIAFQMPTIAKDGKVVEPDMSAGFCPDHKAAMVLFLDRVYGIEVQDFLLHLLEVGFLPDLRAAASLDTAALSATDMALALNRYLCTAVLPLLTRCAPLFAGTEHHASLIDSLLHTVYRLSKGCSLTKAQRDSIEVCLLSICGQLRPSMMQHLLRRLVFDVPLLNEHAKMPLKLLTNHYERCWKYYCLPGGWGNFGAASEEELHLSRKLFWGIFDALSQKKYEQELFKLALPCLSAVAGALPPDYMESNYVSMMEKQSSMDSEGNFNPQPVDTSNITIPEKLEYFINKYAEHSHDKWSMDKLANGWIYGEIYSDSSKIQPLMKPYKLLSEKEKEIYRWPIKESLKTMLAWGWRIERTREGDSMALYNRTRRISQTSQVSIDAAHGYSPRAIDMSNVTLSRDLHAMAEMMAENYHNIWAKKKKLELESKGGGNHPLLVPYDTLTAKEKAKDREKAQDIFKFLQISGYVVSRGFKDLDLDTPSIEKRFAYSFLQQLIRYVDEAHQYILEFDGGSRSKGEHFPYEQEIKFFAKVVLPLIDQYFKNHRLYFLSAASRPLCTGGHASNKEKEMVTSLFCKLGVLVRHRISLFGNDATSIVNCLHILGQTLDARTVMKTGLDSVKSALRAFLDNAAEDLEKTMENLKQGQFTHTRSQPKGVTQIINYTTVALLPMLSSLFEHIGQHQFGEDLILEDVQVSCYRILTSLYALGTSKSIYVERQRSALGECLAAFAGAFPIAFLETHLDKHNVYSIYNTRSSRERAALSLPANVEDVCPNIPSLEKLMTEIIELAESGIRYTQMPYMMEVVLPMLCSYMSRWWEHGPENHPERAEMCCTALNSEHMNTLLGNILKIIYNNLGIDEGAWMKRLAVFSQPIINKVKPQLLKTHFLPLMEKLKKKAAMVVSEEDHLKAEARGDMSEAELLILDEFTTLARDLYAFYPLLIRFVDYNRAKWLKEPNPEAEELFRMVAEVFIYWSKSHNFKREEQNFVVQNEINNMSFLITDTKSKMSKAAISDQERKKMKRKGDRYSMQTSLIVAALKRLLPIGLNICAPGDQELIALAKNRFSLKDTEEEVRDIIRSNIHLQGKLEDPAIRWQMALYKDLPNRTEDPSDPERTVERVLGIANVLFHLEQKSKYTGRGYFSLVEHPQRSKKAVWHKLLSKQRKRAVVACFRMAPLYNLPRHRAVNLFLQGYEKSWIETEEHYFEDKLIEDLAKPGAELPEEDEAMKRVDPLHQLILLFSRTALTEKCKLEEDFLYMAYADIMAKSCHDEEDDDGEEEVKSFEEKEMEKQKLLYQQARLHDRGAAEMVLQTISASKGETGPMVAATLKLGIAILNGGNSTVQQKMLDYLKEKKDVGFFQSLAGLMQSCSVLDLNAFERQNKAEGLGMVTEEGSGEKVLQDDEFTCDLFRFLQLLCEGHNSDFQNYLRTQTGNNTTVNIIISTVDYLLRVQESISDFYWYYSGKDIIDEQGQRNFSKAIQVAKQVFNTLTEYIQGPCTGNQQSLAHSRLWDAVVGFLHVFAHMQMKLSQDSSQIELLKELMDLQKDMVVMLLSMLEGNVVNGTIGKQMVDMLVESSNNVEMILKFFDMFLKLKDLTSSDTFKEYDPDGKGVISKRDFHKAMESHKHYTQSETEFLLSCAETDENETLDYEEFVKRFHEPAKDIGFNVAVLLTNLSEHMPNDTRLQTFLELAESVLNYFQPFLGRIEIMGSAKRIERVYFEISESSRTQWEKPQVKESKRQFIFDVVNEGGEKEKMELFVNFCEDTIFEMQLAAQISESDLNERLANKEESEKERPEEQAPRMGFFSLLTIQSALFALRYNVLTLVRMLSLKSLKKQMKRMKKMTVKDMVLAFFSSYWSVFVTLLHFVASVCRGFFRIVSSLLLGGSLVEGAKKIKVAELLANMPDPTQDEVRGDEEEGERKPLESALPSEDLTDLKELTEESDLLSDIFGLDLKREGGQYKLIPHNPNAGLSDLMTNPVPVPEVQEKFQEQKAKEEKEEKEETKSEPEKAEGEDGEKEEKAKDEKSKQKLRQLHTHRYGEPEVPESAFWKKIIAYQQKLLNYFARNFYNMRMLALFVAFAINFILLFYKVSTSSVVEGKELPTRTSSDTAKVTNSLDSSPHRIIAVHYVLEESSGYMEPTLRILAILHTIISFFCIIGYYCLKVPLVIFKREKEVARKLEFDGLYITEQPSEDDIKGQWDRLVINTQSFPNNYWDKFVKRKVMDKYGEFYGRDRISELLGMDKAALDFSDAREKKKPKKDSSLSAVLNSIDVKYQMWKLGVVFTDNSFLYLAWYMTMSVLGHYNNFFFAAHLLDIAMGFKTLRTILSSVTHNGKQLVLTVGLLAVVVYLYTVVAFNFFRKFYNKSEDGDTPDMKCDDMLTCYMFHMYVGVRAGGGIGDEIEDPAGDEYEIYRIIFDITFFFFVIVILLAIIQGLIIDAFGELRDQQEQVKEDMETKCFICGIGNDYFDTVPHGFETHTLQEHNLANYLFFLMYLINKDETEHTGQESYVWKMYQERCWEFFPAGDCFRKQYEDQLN
T1 sequence (Q9Z2I2 whole entry partner): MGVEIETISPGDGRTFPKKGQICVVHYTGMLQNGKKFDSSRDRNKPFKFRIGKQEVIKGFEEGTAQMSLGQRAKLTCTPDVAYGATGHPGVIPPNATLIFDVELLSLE

For `Fc1ccc(Cl)cc1-c1nc(Nc2ccncc2)c2nccnc2n1` [SD-208], the “abnormal behaviors in open field test (time center versus periphery) and EPM test (time open-arm versus closed-arm)” value [1] was “prevented”, the target crossings [2] was 4.5±0.6 and the “time spent in the target quadrant” value [2] was 27 ± 2 s. For the same molecule, the “latency to find and reach the hidden platform” value [2] was 15 ± 3 s, the “RyR2 mean closed time” value (hippocampal RyR2) was “increased” and the “RyR2 mean open time” value (hippocampal RyR2) was “decreased”. For the same molecule, the “hippocampal FDG metabolism” value (MI mice) was 138±22, the “expression of SNAP25, VAMP8, SYT2 and CPLX3” value (SNARE signaling pathway) was “restored the expression of these proteins to the control levels” and the “NOX2 binding to hippocampal RyR2” value (TGF-β pathway) was “significantly reduced”. The TGF-β levels (TGF-β pathway) was “significantly reduced”, the “phosphorylation of SMAD3” value (TGF-β pathway) was “significantly reduced” and the “changes in AMPK, GSK3B, CaMKII, Tau phosphorylation, p25, BACE1 and βCTF” value [3] was “prevented/attenuated”.

In the case of `CC(C)NCC(O)COc1cccc2ccccc12` (stereo not shown) [propranolol], the “abnormal behaviors in open field test (time center versus periphery) and EPM test (time open-arm versus closed-arm)” value [1] is reported as “prevented”, the target crossings [2] is reported as 3.5±0.6 and the “time spent in the target quadrant” value [2] is reported as 26 ± 2 s. For the same molecule, the “latency to find and reach the hidden platform” value [2] was 17 ± 3 s, the “RyR2 mean closed time” value (hippocampal RyR2) was “increased” and the “RyR2 mean open time” value (hippocampal RyR2) was “decreased”. The “RyR2 open probability (Po)” value (hippocampal RyR2; 150 nM Ca2+ cis, MI 0.17%±0.04%) was 0.018%±0.020%, the “hippocampal FDG metabolism” value (MI mice) was 145±26 and the “expression of SNAP25, VAMP8, SYT2 and CPLX3” value (SNARE signaling pathway) was “restored the expression of these proteins to the control levels”. The “NOX2 binding to hippocampal RyR2” value (TGF-β pathway) was “significantly reduced”, the TGF-β levels (TGF-β pathway) was “significantly reduced” and the “phosphorylation of SMAD3” value (TGF-β pathway) was “significantly reduced”. The “changes in AMPK, GSK3B, CaMKII, Tau phosphorylation, p25, BACE1 and βCTF” value [3] was “prevented/attenuated”.
